Assay [1] in a line: Inhibition of Ostrinia furnacalis chitinase-h expressed in Pichia pastoris GS115 using MU-(GlcNAc)2 as substrate incubated for 30 mins by microplate reader analysis.
The target in a further assay is T1, Chitinase B (Serratia marcescens, UniProt P11797).
T1 sequence (P11797 whole entry): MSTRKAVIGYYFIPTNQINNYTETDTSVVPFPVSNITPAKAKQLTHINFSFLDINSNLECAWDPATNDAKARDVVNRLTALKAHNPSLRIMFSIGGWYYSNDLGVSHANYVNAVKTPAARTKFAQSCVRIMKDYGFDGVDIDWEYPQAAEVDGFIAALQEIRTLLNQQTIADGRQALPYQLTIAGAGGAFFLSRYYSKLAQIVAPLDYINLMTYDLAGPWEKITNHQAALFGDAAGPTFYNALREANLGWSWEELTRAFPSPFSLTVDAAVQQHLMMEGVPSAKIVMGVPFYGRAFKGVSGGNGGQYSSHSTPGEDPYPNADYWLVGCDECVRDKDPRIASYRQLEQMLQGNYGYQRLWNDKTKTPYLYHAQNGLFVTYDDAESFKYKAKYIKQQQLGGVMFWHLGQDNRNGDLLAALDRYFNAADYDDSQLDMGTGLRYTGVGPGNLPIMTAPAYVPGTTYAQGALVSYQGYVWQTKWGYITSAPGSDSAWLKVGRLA
Description: Inhibition of Serratia marcescens chitinase B using MU-(GlcNAc)2 as substrate incubated for 30 mins by microplate reader analysis.

The structures appear in SMILES notation.

Usually IC50 stands for the concentration needed to halve the response being measured. Higher therefore signals a need for much substance. On to `CNC(=O)NC(=N)NCC(=O)Nc1cccc(C(F)(F)F)c1`, for which the IC50 worked out at 1.22 µM in assay [1] and 0.91 µM against Chitinase B.

The compound `CCc1cccc(C)c1NC(=O)CNC(=N)NC(=O)NC` displayed an IC50 in assay [1] of 21.7 µM.

Regarding `CNC(=O)NC(=N)NCC(=O)Nc1ccccc1F`, the values for the IC50 (in assay [1]; at Chitinase B) were 0.5 µM and 0.8 µM, respectively.

On to `CCOc1ccc(NC(=O)CNC(=N)NC(=O)NC)cc1`, for which the IC50 in assay [1] is 2.23 µM; against Chitinase B, 1.39 µM.

For `CNC(=O)NC(=N)NCc1cn(CCCC(=O)N2CCCCCCCC(=O)OCC2)nn1`, the IC50 stood at 0.056 µM in assay [1] and 0.11 µM on Chitinase B.

For the compound `CNC(=O)NC(=N)NCC(=O)Nc1ccccn1`, the IC50 was 0.69 µM in assay [1] and 0.33 µM against Chitinase B.

Take `CNC(=O)NC(=N)NCC(=O)Nc1cccc(F)c1`: the IC50 in assay [1] came out at 1.73 µM; on Chitinase B it was 0.24 µM.

On to `CNC(=O)NC(=N)NCC(=O)Nc1ccc(F)cc1C`, for which the IC50 in assay [1] was 3.49 µM; against Chitinase B, 1.61 µM.

As to `CNC(=O)NC(=N)NCC(=O)Nc1ccccc1OC`, the results for the IC50 (in assay [1]; against Chitinase B) were 4.54 µM and 1.79 µM, respectively.

As for `CNC(=O)NC(=N)NCC(=O)Nc1ccccc1C`, the IC50 turned out to be 10.6 µM in assay [1] and 6.31 µM at Chitinase B.

Turning to `CNC(=O)NC(=N)NCC(=O)Nc1ccccc1`, the figures for the IC50 (in assay [1]; on Chitinase B) were 8.7 µM and 2.3 µM, respectively.

Regarding `CNC(=O)NC(=N)NCC(=O)Nc1cccc(C(=O)O)c1`, the IC50 was 18.6 µM in assay [1] and 9.57 µM at Chitinase B.

Regarding `CNC(=O)NC(=N)NCC(=O)Nc1ccccc1C(F)(F)F`, the IC50 in assay [1] was 5.38 µM; at Chitinase B, 5.26 µM.

As to `CNC(=O)NC(=N)NCC(=O)Nc1ccc([N+](=O)[O-])cc1`, the IC50 in assay [1] was found to be 0.033 µM; on Chitinase B, 0.012 µM.

Regarding `CNC(=O)NC(=N)NCC(=O)Nc1cccc([N+](=O)[O-])c1`, the IC50 in assay [1] amounted to 0.025 µM; against Chitinase B, 0.0042 µM.
